Results as given in the NIST ThermoML archive (doi:10.1021/acs.jced.6b00178).

Assay: xn = mol fraction of the nth substance listed
Conditions: 100 kPa, Liquid; for viscosity: Concentric cylinders viscometry; for mass density: Vibrating tube method

CCCCn1cc[n+](C)c1.F[P-](F)(F)(F)(F)F [1-butyl-3-methylimidazolium hexafluorophosphate] + CCCC[n+]1ccn(C)c1.O=S(=O)([N-]S(=O)(=O)C(F)(F)F)C(F)(F)F
Conditions	mass density, x2 = 0 [kg/m3]	mass density, x2 = 0.25 [kg/m3]	mass density, x2 = 0.5 [kg/m3]	mass density, x2 = 0.748 [kg/m3]	viscosity, x2 = 0 [mPa·s]	viscosity, x2 = 0.25 [mPa·s]	viscosity, x2 = 0.5 [mPa·s]	viscosity, x2 = 0.748 [mPa·s]
283.15 K	1379.9	1402.5	1421.1	1437.4	794.33	360.25	221.31	148.25
288.15 K	1376.5	1398.3	1417.2	1433.1	557.27	264.71	166.04	112.57
293.15 K	1372	1393.8	1412.6	1428.4	393.86	196.39	126.16	87.23
298.15 K	1367.6	1389.4	1408	1423.7	285.02	148.96	97.74	68.88
303.15 K	1363.4	1385	1403.5	1419	210.93	115.08	77.09	55.3
308.15 K	1359.2	1380.7	1399	1414.3	159.46	90.44	61.82	45.08
313.15 K	1355.1	1376.4	1394.5	1409.7	122.78	72.18	50.31	37.25
318.15 K	1351	1372.1	1390	1405.1	96.28	58.45	41.52	31.17
323.15 K	1347	1367.9	1385.6	1400.5	76.72	47.96	34.68	26.38
328.15 K	1342.9	1363.6	1381.2	1395.9	62.04	39.84	29.3	22.56
333.15 K	1338.9	1359.4	1376.7	1391.3	50.85	33.47	25	19.47
338.15 K	1334.9	1355.2	1372.3	1386.8	42.2	28.39	21.53	16.96
343.15 K	1330.9	1351	1368	1382.3	35.43	24.3	18.7	14.88
348.15 K	1326.9	1346.9	1363.6	1377.9	30.04	20.99	16.38	13.15
353.15 K	1323	1342.7	1359.3	1373.4	25.72	18.29	14.44	11.7
358.15 K	1319	1338.6	1355.1	1369	22.22	16.04	12.82	10.47
363.15 K	1315.2	1334.6	1350.8	1364.6	19.36	14.17	11.46	9.428

CCCCn1cc[n+](C)c1.N#C[S-] [1-butyl-3-methylimidazolium thiocyanate] + CCCC[n+]1ccn(C)c1.O=S(=O)([N-]S(=O)(=O)C(F)(F)F)C(F)(F)F
Conditions	mass density, x2 = 0 [kg/m3]	mass density, x2 = 0.25 [kg/m3]	mass density, x2 = 0.5 [kg/m3]	mass density, x2 = 0.748 [kg/m3]	viscosity, x2 = 0 [mPa·s]	viscosity, x2 = 0.25 [mPa·s]	viscosity, x2 = 0.5 [mPa·s]	viscosity, x2 = 0.748 [mPa·s]
283.15 K	1079.2	1206.2	1305.3	1385.3	139.54	133.49	124.13	115.12
288.15 K	1076.2	1202.6	1301.2	1380.7	104.51	101.08	94.68	88.29
293.15 K	1073.2	1199	1297.1	1376.2	82.91	80.92	76.17	71.22
298.15 K	1070.2	1195.4	1293.1	1371.7	62.63	61.69	58.5	55.06
303.15 K	1067.2	1191.8	1289	1367.3	49.94	49.55	47.23	44.62
308.15 K	1064.2	1188.3	1285	1362.8	40.48	40.42	38.7	36.7
313.15 K	1061.3	1184.7	1281	1358.4	34.08	34.22	32.85	31.22
318.15 K	1058.4	1181.2	1277.1	1354	27.8	28.05	27.03	25.81
323.15 K	1055.5	1177.7	1273.1	1349.7	23.49	23.79	22.97	22.01
328.15 K	1052.6	1174.3	1269.2	1345.3	20.06	20.39	19.74	18.96
333.15 K	1049.8	1170.8	1265.3	1341	17.58	17.91	17.36	16.7
338.15 K	1047	1167.4	1261.5	1336.7	15.08	15.38	14.94	14.44
343.15 K	1044.1	1164	1257.6	1332.4	13.24	13.54	13.16	12.74
348.15 K	1041.4	1160.6	1253.8	1328.1	11.71	12	11.67	11.33
353.15 K	1038.6	1157.3	1250	1323.9	10.67	10.92	10.65	10.36
358.15 K	1035.8	1154	1246.2	1319.7	9.355	9.577	9.351	9.114
363.15 K	1033.1	1150.7	1242.4	1315.5	8.436	8.621	8.44	8.242
